Tests used:
[1] = tested on: panel of 60 human kinases; assay: Radiolabeled ATP kinase assay, panel of 60 kinases (Table S5); type: biochemical; conditions: 0.5 μM
Outline: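 Cell-free radiolabeled-ATP kinase assays across a panel of 60 kinases; each compound tested at 0.1 μM and 0.5 μM for inhibition.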

[2] = target: T1, panel of 371 human kinases (Homo sapiens, UniProt P07333); assay: Radiolabeled ATP kinase assay, panel of 371 kinases (Table S6); type: biochemical; conditions: FMS; 0.1 μM; 10 μM ATP; read-out: % Enzyme Activity (relative to DMSO controls)
T1 construct: purchased Reaction Biology Corp
Text: (§1) ; FIG. 38C). […]. Further targeted analyses, such as genetic knock-down or knock-out, may be warranted to parse the role of these additional kinases in our model of neurodegeneration.

[3] = target: T2, panel of 371 human kinases (Homo sapiens, UniProt P07948); assay: as above; type: biochemical; conditions: LYN; 0.1 μM; 10 μM ATP; read-out: % Enzyme Activity (relative to DMSO controls)
T2 construct: purchased Reaction Biology Corp
Text: as §1

[4] = target: T3, panel of 371 human kinases (Homo sapiens, UniProt P11362); assay: as above; type: biochemical; conditions: FGFR1; 0.1 μM; 10 μM ATP; read-out: % Enzyme Activity (relative to DMSO controls)
T3 construct: purchased Reaction Biology Corp
Text: as §1

[5] = target: T4, panel of 371 human kinases (Homo sapiens, UniProt P30291); assay: as above; type: biochemical; conditions: WEE1; 0.1 μM; 10 μM ATP; read-out: % Enzyme Activity (relative to DMSO controls)
T4 construct: purchased Reaction Biology Corp
Text: as §1

[6] = target: T5, panel of 371 human kinases (Homo sapiens, UniProt P42681); assay: as above; type: biochemical; conditions: TXK; 0.1 μM; 10 μM ATP; read-out: % Enzyme Activity (relative to DMSO controls)
T5 construct: purchased Reaction Biology Corp
Text: as §1

[7] = target: T6, panel of 371 human kinases (Homo sapiens, UniProt P53779); assay: as above; type: biochemical; conditions: JNK3; 0.1 μM; 10 μM ATP; read-out: % Enzyme Activity (relative to DMSO controls)
T6 construct: purchased Reaction Biology Corp
Text: as §1

[8] = target: T7, panel of 371 human kinases (Homo sapiens, UniProt Q02779); assay: as above; type: biochemical; conditions: MLK2/MAP3K10; 0.1 μM; 10 μM ATP; read-out: % Enzyme Activity (relative to DMSO controls)
T7 construct: purchased Reaction Biology Corp
Text: as §1

[9] = target: T8, panel of 371 human kinases (Homo sapiens, UniProt Q07912); assay: as above; type: biochemical; conditions: ACK1; 0.1 μM; 10 μM ATP; read-out: % Enzyme Activity (relative to DMSO controls)
T8 construct: purchased Reaction Biology Corp
Text: as §1

[10] = target: T9, panel of 371 human kinases (Homo sapiens, UniProt Q13557); assay: as above; type: biochemical; conditions: CAMK2d; 0.1 μM; 10 μM ATP; read-out: % Enzyme Activity (relative to DMSO controls)
T9 construct: purchased Reaction Biology Corp
Text: as §1

[11] = target: T10, panel of 371 human kinases (Homo sapiens, UniProt Q16620); assay: as above; type: biochemical; conditions: TRKB; 0.1 μM; 10 μM ATP; read-out: % Enzyme Activity (relative to DMSO controls)
T10 construct: purchased Reaction Biology Corp
Text: as §1

[12] = target: T11, panel of 371 human kinases (Homo sapiens, UniProt Q8NEV4); assay: as above; type: biochemical; conditions: MYO3A; 0.1 μM; 10 μM ATP; read-out: % Enzyme Activity (relative to DMSO controls)
T11 construct: purchased Reaction Biology Corp
Text: as §1

[13] = target: T12, panel of 371 human kinases (Homo sapiens, UniProt Q8WXR4); assay: as above; type: biochemical; conditions: MYO3b; 0.1 μM; 10 μM ATP; read-out: % Enzyme Activity (relative to DMSO controls)
T12 construct: purchased Reaction Biology Corp
Text: as §1

[14] = target: T13, panel of 371 human kinases (Homo sapiens, UniProt Q96PY6); assay: as above; type: biochemical; conditions: NEK1; 0.1 μM; 10 μM ATP; read-out: % Enzyme Activity (relative to DMSO controls)
T13 construct: purchased Reaction Biology Corp
Text: as §1

[15] = target: T14, panel of 371 human kinases (Homo sapiens, UniProt Q9BUB5); assay: as above; type: biochemical; conditions: MNK1; 0.1 μM; 10 μM ATP; read-out: % Enzyme Activity (relative to DMSO controls)
T14 construct: purchased Reaction Biology Corp
Text: as §1

[16] = target: T15, panel of 371 human kinases (Homo sapiens, UniProt Q9H1R3); assay: as above; type: biochemical; conditions: MLCK2/MYLK2; 0.1 μM; 10 μM ATP; read-out: % Enzyme Activity (relative to DMSO controls)
T15 construct: purchased Reaction Biology Corp
Text: as §1

[17] = target: T16, panel of 371 human kinases (Homo sapiens, UniProt Q9H422); assay: as above; type: biochemical; conditions: HIPK3; 0.1 μM; 10 μM ATP; read-out: % Enzyme Activity (relative to DMSO controls)
T16 construct: purchased Reaction Biology Corp
Text: as §1

[18] = target: T17, panel of 371 human kinases (Homo sapiens, UniProt Q9NRH2); assay: as above; type: biochemical; conditions: SNRK; 0.1 μM; 10 μM ATP; read-out: % Enzyme Activity (relative to DMSO controls)
T17 construct: purchased Reaction Biology Corp
Text: as §1

[19] = target: T18, panel of 371 human kinases (Homo sapiens, UniProt Q9UKI8); assay: as above; type: biochemical; conditions: TLK1; 0.1 μM; 10 μM ATP; read-out: % Enzyme Activity (relative to DMSO controls)
T18 construct: purchased Reaction Biology Corp
Text: as §1

[20] = target: T19, panel of 371 human kinases (Homo sapiens, UniProt Q9UL54); assay: as above; type: biochemical; conditions: TAOK2/TAO1; 0.1 μM; 10 μM ATP; read-out: % Enzyme Activity (relative to DMSO controls)
T19 construct: purchased Reaction Biology Corp
Text: as §1

[21] = target: T20, panel of 371 human kinases (Homo sapiens, UniProt Q9Y2H1); assay: as above; type: biochemical; conditions: STK38/NDR2; 0.1 μM; 10 μM ATP; read-out: % Enzyme Activity (relative to DMSO controls)
T20 construct: purchased Reaction Biology Corp
Text: as §1

N9 microglial cells = assay: TNFα release by LPS-stimulated microglia (ELISA); type: cell-based, mouse; conditions: for TNFα secretion in LPS-stimulated microglia: LPS 0.1-5 μM, 24 h
Protocol: To model microglial activation in vitro, we stimulated mouse N9 microglial cells with increasing concentrations of E. coli-derived lipopolysaccharides (LPS) (0.1-5 μM) to measure release of the pro-inflammatory cytokine TNFα into cell culture media.
Cultures were maintained in DMEM containing FBS (10%, Life Technologies) and Glutamax (1%, Life Technologies). […] N9 cells remaining in the culture dishes were treated with AlamarBlue (Thermo Fisher) to assess viability. 5 μL AlamarBlue was added to each well (containing 50 μL culture media) and incubated for 4 h at 37°.

T10 sequence (Q16620 32-822): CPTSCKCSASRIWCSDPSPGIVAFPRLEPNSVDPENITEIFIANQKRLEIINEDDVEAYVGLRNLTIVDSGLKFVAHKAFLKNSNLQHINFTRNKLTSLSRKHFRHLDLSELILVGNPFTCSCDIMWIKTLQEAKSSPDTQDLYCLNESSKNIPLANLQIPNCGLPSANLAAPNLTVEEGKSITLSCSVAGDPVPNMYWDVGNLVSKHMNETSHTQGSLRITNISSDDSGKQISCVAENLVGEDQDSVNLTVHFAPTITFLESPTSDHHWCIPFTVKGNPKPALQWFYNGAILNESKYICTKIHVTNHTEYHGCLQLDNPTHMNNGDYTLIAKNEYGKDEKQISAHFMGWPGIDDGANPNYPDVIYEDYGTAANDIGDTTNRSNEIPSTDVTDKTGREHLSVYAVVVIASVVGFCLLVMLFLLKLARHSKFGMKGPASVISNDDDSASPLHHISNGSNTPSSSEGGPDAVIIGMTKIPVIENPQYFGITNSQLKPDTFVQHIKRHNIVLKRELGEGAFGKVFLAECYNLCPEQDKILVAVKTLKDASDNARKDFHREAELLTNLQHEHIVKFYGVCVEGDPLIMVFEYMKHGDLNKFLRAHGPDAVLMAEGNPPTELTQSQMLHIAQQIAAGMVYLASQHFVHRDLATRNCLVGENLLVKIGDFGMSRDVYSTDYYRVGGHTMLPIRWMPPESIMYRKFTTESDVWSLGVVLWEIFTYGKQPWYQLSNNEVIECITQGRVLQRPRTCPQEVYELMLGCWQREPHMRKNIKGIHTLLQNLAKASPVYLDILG
T14 sequence (Q9BUB5 whole entry): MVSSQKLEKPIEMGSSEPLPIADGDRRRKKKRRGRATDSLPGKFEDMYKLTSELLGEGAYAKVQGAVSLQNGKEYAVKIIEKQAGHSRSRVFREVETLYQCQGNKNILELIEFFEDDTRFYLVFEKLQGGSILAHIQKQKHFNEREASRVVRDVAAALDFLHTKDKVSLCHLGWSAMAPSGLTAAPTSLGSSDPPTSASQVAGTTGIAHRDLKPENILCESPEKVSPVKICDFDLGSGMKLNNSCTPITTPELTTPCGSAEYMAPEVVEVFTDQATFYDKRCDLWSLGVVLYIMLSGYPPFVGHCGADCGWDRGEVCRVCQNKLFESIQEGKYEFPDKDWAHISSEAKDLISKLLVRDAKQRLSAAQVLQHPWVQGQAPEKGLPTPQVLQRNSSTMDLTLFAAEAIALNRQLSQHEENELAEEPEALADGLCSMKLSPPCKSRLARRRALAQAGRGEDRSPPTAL
T7 sequence (Q02779 whole entry): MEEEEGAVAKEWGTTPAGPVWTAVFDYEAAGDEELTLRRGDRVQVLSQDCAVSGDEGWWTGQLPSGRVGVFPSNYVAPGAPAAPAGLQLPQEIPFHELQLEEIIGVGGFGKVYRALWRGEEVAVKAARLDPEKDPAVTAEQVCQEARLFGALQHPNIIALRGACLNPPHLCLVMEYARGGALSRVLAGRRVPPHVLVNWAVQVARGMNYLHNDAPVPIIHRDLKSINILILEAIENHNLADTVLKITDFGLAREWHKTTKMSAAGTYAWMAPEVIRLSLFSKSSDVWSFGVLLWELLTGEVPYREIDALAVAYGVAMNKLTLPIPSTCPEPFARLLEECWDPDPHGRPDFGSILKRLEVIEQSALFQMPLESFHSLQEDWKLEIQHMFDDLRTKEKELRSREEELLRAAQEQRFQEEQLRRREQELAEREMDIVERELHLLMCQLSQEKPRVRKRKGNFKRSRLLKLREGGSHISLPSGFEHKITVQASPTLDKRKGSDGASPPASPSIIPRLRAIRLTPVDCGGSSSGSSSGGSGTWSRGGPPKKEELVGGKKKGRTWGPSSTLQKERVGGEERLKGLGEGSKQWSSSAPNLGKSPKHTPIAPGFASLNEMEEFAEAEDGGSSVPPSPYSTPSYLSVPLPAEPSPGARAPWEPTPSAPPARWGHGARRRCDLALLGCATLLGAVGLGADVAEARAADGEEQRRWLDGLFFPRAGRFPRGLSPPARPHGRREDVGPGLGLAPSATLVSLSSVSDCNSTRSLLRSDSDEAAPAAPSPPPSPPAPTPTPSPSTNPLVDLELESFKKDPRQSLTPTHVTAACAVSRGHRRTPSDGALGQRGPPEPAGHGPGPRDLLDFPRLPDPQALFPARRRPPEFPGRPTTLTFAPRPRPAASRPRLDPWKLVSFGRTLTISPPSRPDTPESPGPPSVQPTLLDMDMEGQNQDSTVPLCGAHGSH
T11 sequence (Q8NEV4 whole entry): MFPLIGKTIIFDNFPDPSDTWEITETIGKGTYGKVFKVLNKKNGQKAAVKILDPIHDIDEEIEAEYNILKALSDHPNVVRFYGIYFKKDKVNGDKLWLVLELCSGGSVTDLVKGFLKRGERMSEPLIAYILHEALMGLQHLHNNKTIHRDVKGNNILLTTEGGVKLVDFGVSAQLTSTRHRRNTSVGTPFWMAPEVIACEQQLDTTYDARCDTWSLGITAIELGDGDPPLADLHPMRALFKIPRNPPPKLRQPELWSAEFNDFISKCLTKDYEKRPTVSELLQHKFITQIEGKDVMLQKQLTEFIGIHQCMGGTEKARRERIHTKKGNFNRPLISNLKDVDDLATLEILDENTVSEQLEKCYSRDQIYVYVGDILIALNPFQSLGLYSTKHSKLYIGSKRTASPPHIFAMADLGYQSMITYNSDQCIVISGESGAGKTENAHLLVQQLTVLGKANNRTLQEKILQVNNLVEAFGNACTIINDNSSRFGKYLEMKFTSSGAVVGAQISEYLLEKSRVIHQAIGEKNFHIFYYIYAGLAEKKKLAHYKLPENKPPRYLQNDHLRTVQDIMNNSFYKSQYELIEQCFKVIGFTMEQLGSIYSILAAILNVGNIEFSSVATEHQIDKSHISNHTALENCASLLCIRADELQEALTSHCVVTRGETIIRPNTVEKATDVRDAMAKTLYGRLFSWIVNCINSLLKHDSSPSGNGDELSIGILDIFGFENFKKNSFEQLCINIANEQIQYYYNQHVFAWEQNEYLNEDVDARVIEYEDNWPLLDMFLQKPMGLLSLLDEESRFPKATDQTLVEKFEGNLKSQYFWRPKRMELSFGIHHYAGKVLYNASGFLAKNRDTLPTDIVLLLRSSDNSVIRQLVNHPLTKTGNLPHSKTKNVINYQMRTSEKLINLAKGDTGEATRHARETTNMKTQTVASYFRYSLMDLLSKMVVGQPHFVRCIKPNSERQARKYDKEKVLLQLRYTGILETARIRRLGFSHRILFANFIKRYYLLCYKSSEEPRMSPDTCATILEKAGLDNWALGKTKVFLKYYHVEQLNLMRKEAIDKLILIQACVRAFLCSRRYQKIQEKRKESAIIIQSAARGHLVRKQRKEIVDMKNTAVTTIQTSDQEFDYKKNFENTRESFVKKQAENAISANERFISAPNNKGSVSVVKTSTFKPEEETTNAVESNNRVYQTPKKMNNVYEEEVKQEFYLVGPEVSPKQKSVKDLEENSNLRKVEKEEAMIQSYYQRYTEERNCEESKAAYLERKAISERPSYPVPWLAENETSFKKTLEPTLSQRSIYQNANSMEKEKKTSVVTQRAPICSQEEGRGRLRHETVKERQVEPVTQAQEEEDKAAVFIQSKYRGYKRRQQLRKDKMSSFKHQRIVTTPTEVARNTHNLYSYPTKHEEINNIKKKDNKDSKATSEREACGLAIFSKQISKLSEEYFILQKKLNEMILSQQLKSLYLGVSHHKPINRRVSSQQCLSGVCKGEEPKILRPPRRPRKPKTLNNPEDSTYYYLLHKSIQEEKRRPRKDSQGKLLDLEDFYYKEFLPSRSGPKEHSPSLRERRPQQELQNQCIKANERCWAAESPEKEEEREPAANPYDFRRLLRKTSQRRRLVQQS
T8 sequence (Q07912 whole entry): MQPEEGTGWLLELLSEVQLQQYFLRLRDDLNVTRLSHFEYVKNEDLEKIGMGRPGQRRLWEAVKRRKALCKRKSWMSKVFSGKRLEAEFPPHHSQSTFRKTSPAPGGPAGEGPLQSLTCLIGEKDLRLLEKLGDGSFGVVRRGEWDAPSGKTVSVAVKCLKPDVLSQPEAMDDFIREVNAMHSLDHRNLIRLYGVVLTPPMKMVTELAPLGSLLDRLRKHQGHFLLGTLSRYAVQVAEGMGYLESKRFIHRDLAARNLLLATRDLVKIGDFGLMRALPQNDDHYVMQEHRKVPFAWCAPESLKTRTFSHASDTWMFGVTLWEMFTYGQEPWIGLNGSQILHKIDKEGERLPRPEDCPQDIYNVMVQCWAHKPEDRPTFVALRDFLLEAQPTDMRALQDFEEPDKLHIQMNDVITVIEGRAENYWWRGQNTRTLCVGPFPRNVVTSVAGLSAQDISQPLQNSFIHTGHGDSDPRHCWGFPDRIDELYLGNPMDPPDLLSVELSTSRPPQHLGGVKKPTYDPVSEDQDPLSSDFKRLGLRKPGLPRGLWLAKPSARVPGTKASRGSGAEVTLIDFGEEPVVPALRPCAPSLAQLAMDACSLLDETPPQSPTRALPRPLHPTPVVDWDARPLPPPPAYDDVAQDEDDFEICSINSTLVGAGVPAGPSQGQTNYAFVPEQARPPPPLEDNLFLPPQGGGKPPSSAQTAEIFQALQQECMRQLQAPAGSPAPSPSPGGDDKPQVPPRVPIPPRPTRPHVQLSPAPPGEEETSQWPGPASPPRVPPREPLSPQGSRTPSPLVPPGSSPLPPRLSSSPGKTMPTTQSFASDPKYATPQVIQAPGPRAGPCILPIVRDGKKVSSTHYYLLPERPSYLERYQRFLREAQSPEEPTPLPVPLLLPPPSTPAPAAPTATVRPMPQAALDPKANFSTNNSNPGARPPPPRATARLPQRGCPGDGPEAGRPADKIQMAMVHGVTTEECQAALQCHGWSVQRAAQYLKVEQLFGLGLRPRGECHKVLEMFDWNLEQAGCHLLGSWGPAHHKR

SMILES	number of the 60 kinases strongly inhibited (<20% residual activity) [1]	remaining activity at 0.1 µM [2] [%]	remaining activity at 0.1 µM [3] [%]	remaining activity at 0.1 µM [4] [%]	remaining activity at 0.1 µM [5] [%]	remaining activity at 0.1 µM [6] [%]	remaining activity at 0.1 µM [7] [%]	remaining activity at 0.1 µM [8] [%]	remaining activity at 0.1 µM [9] [%]	remaining activity at 0.1 µM [10] [%]	remaining activity at 0.1 µM [11] [%]	remaining activity at 0.1 µM [12] [%]	remaining activity at 0.1 µM [13] [%]	remaining activity at 0.1 µM [14] [%]	remaining activity at 0.1 µM [15] [%]	remaining activity at 0.1 µM [16] [%]	remaining activity at 0.1 µM [17] [%]	remaining activity at 0.1 µM [18] [%]	remaining activity at 0.1 µM [19] [%]	remaining activity at 0.1 µM [20] [%]	further results
CN1CCN(Cc2ccc(-c3cnc4[nH]cc(-c5ccc6[nH]ccc6c5)c4c3)cc2)CC1 [Compound 1, 3-(1H-Indol-5-yl)-5-(4-((4-methylpiperazin-1-yl)methyl)phenyl)-1H-pyrrolo[2,3-b]pyridine, reference compound]	27	85.4	90.3	93.9	114	85.3	89.5	84.1	87.3	97	59.3	88.6	80.8	80.1	94	66	103	102	102	104	remaining activity at 0.1 µM [21]: 87.7%; TNFα secretion in LPS-stimulated microglia (N9 microglial cells): significantly and dose-dependently decreased TNFα secretion
CN1CCN(Cc2ccc(-c3cnc4[nH]cc(-c5cccc(Cl)c5)c4c3)cc2)CC1 [Compound 7ad, 3-(3-Chlorophenyl)-5-(4-((4-methylpiperazin-1-yl)methyl)phenyl)-1H-pyrrolo[2,3-b]pyridine]	12																				
OCCN1CCN(Cc2ccc(-c3cnc4[nH]cc(-c5cccc(Cl)c5)c4c3)cc2)CC1 [Compound 12k, 2-(4-(4-(3-(3-Chlorophenyl)-1H-pyrrolo[2,3-b]pyridin-5-yl)benzyl)piperazin-1-yl)ethan-1-ol]		26.8	99.3	95	86.6	87	94.4	73.1	93.6	81.3	77.4	79.1	40.7	76.5	90.7	78.9	113	43.1	102	103	remaining activity at 0.1 µM [21]: 77.8%; potency in TNFα release assay relative to compound 1 (times less potent) (N9 microglial cells): ~5 ×; TNFα secretion in LPS-stimulated microglia (N9 microglial cells): significantly decreased TNFα secretion

— patent US12227500B2, “Substituted pyrrolo[2,3-b]pyridines for suppressing toxic endoplasmic reticulum stress” (THE TRUSTEES OF COLUMBIA UNIVERSITY IN THE CITY OF NEW YORK, priority 2018, dated 2025)
